According to US8029774B2, “Wound healing polymeric networks” (University of Pittsburgh, priority 2005, dated 2011):

Legend:
[1] = tested on: human dermal fibroblasts; test: Cell motility, in vitro wound healing assay; conditions: for movement of fibroblasts: in vitro wound healing assay, compared to no gel
[2] = tested on: human keratinocytes (HaCaT cells); test: Cell motility, in vitro wound healing assay; conditions: compared to no gel
[3] = tested on: human fibroblasts

Row | SMILES | movement of fibroblasts [1] | movement of keratinocytes [2] | further results
1 | COC(=O)C(CCCCN=C=O)N=C=O (centres unmarked) [LDI, Lysine diisocyanate methyl ester] | limited cell movement | limited cell movement | –
2 | OC[C@H]1O[C@@H](O[C@H]2[C@H](O)[C@@H](O)C(O)O[C@@H]2CO)[C@H](O)[C@@H](O)[C@H]1O (some centres unmarked) [lactose] | limited cell movement | limited cell movement | –
3 | O=[N+]([O-])[O-].[Ag+] [silver nitrate] | – | – | dead cells ([3]; human fibroblasts, 3 μg/ml of silver nitrate in medium, or polymer cured with 3 μg/ml silver): 10%
4 | [Ag] [silver] | – | – | impact on cell migration or proliferation ([1]; silver per se): no adverse impact; concentrations of silver preferred for cell proliferation [3]: lower than 15 μg/ml; fibroblasts proliferation [3]: greatly inhibited
